Data as given in ChEMBL document CHEMBL5137081, “N-Heterocyclic 3-Pyridyl Carboxamide Inhibitors of DHODH for the Treatment of Acute Myelogenous Leukemia” (J Med Chem, 2022).
pIC50, pKd: −log10 of the molar value. In brackets after ≈: the same amount, converted by molar mass.

How the values were obtained:
[1] = Plasma protein binding in mouse assessed as free fraction at 1 uM by equilibrium dialysis based LC-MS/MS analysis; type: ADME, cell-free
[2] = Cmax in Sprague-Dawley rat at 10 mg/kg, po or 2 mg/kg, iv measured upto 24 hrs by LC-MS/MS analysis; type: ADME, organism-based; parameters: dose 10 mg/kg, time < 24 hrs, route po; conditions: in vivo
[3] = biological target: T1, Dihydroorotate dehydrogenase (quinone), mitochondrial (Homo sapiens, UniProt Q02127); assay: Inhibition of His fused human DHODH expressed in Escherichia coli using DHO as substrate by DCIP absorbance based colorimetry assay
THP-1 = assay: Antiproliferative activity against human THP-1 cells assessed as reduction in cell viability measured after 72 hrs; type: functional, cell-based; conditions: THP-1, 72 h
[4] = biological target: Voltage-gated inwardly rectifying potassium channel KCNH2 (Homo sapiens, UniProt Q12809); assay: Inhibition of hERG expressed in HEK293 cells by radioligand binding assay; type: toxicity, cell-based
MOLM-13 = assay: Antiproliferative activity against human MOLM-13 cells incubated for 72 hrs by CellTiter-Glo assay; type: functional, cell-based; conditions: MOLM-13, 72 h
[5] = AUC(0 to infinity) in C57BL/6 mouse at 10 mg/kg, po or 2 mg/kg, iv measured upto 24 hrs by LC-MS/MS analysis; type: ADME, organism-based; parameters: time < 24 hrs, dose 10 mg/kg, route po; conditions: in vivo
[6] = Cmax in C57BL/6 mouse at 10 mg/kg, po or 2 mg/kg, iv measured upto 24 hrs by LC-MS/MS analysis; type: ADME, organism-based; parameters: time < 24 hrs, dose 10 mg/kg, route po; conditions: in vivo
[7] = Lipophilicity, logD of compound at pH 7.4; type: physicochemical; conditions: buffer
[8] = Plasma protein binding in rat assessed as free fraction at 1 uM by equilibrium dialysis based LC-MS/MS analysis; type: ADME, cell-free
[9] = Metabolic stability in rat liver microsome assessed as intrinsic clearance pretreated for 5 mins followed by NADPH addition and measured upto 60 mins by HPLC-MS/MS analysis; type: ADME; conditions: liver microsomes, time < 65 min, read-out: CLH
[10] = Metabolic stability in dog liver microsome assessed as intrinsic clearance pretreated for 5 mins followed by NADPH addition and measured upto 60 mins by HPLC-MS/MS analysis; type: ADME, Canis lupus familiaris; conditions: liver microsomes, time < 65 min, read-out: CLH
[11] = biological target: Dihydroorotate dehydrogenase (quinone), mitochondrial (Rattus norvegicus, UniProt Q63707); assay: Inhibition of rat DHODH
[12] = Inhibition of dog DHODH; parameters: species or system Canis lupus familiaris
[13] = Intrinsic clearance in rat hepatocytes measured per 10^6 cells; type: ADME, cell-based, Hepatocyte
[14] = Solubility of compound at pH 7 by HPLC analysis; type: physicochemical; conditions: buffer
Cytochrome P450 2C8 = biological target: T2, Cytochrome P450 2C8 (Homo sapiens, UniProt P10632); assay: Inhibition of CYP2C8 in human liver microsomes incubated for 10 mins by LC-MS/MS analysis; type: ADME, Microsome
T2 sequence (P10632 whole entry): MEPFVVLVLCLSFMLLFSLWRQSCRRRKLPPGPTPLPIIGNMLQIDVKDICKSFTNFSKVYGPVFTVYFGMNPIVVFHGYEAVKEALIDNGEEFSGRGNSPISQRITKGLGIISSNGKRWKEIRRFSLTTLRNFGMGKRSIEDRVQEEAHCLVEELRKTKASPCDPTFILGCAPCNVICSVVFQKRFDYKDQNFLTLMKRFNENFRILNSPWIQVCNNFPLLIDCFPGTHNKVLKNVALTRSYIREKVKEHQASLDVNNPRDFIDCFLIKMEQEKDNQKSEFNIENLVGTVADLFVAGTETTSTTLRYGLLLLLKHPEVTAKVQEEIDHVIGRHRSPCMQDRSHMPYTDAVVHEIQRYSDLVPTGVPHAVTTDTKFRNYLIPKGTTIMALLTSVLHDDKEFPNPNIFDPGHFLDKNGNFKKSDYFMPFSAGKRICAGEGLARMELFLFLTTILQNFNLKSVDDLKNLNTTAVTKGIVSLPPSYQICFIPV

[15] = Stability in human hepatocytes assessed as intrinsic clearance measured per 10^6 cells incubated upto 120 mins by LC-MS/MS analysis; type: ADME, cell-based, Hepatocyte; conditions: 2 h
[16] = biological target: Dihydroorotate dehydrogenase (quinone), mitochondrial (Mus musculus, UniProt O35435); assay: Inhibition of mouse DHODH
[17] = Plasma protein binding in human assessed as free fraction at 1 uM by equilibrium dialysis based LC-MS/MS analysis; type: ADME, cell-free
[18] = Metabolic stability in human liver microsome assessed as intrinsic clearance pretreated for 5 mins followed by NADPH addition and measured upto 60 mins by HPLC-MS/MS analysis; type: ADME; conditions: microsomes, 1.083 h, time < 65 min
[19] = biological target: T1, Dihydroorotate dehydrogenase (quinone), mitochondrial; assay: Binding affinity to His fused human DHODH expressed in Escherichia coli by surface plasmon resonance assay
Cytochrome P450 1A2 = biological target: T3, Cytochrome P450 1A2 (Homo sapiens, UniProt P05177); assay: Inhibition of CYP1A2 in human liver microsomes incubated for 10 mins by LC-MS/MS analysis; type: ADME, Microsome
T3 sequence (P05177 whole entry): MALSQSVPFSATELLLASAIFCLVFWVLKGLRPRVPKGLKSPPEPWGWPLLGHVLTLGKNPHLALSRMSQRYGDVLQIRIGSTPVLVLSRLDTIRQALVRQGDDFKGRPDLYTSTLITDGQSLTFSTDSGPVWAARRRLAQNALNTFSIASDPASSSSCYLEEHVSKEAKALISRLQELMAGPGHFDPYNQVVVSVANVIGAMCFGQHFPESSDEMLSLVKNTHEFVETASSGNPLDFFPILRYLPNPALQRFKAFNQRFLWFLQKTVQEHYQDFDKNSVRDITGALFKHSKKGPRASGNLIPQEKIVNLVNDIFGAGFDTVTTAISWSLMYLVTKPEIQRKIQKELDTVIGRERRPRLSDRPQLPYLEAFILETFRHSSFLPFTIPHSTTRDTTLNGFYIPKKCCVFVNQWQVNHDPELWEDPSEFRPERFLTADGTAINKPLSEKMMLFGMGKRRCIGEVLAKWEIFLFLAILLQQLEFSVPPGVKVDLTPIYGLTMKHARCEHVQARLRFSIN

[20] = Intrinsic clearance in monkey hepatocytes measured per 10^6 cells; type: ADME, cell-based, Macaca mulatta, Hepatocyte; conditions: rhesus monkey
[21] = AUC(0 to infinity) in Sprague-Dawley rat at 10 mg/kg, po or 2 mg/kg, iv measured upto 24 hrs by LC-MS/MS analysis; type: ADME, organism-based; parameters: dose 10 mg/kg, time < 24 hrs, route po; conditions: in vivo
Cytochrome P450 2D6 = Cytochrome P450 2D6 (Homo sapiens, UniProt P10635); assay: Inhibition of CYP2D6 in human liver microsomes incubated for 10 mins by LC-MS/MS analysis; type: ADME, Microsome
[22] = Tmax in Sprague-Dawley rat at 10 mg/kg, po or 2 mg/kg, iv measured upto 24 hrs by LC-MS/MS analysis; type: ADME, organism-based; conditions: in vivo
[23] = Plasma protein binding in dog assessed as free fraction at 1 uM by equilibrium dialysis based LC-MS/MS analysis; type: ADME, cell-free, Canis lupus familiaris
[24] = Metabolic stability in mouse liver microsome assessed as intrinsic clearance pretreated for 5 mins followed by NADPH addition and measured upto 60 mins by HPLC-MS/MS analysis; type: ADME; conditions: liver microsomes, time < 65 min, read-out: CLH
[25] = Volume of distribution at steady state in Sprague-Dawley rat at 10 mg/kg, po or 2 mg/kg, iv measured upto 24 hrs by LC-MS/MS analysis; type: ADME, organism-based; conditions: in vivo
[26] = Oral bioavailability in Sprague-Dawley rat at 10 mg/kg measured upto 24 hrs by LC-MS/MS analysis; type: ADME, organism-based; conditions: in vivo

T1 sequence (Q02127 whole entry, the tested form may be a part): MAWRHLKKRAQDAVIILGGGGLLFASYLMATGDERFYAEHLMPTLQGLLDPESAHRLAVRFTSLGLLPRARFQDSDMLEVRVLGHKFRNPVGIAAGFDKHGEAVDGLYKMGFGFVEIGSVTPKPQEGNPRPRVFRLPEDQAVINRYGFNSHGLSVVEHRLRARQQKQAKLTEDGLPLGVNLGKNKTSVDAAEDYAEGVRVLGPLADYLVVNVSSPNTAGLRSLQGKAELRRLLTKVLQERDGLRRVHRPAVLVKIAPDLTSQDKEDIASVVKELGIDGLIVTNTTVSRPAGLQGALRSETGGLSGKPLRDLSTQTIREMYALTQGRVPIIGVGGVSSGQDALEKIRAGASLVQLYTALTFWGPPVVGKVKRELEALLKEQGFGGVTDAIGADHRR
Cytochrome P450 2D6, sequence (P10635 whole entry): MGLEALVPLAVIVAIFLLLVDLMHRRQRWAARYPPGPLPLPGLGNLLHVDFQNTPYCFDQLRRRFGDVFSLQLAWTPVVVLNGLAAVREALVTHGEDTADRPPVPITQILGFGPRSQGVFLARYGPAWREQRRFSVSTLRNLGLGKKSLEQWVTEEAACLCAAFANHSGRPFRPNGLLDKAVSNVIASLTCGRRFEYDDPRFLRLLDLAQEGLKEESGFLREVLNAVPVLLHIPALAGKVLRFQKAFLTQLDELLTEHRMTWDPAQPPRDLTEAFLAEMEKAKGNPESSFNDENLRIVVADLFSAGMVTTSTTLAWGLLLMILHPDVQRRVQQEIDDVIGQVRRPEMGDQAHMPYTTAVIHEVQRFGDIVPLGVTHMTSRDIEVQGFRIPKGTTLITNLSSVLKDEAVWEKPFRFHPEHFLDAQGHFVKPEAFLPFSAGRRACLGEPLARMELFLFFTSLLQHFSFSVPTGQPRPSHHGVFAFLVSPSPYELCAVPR
Dihydroorotate dehydrogenase (quinone), mitochondrial (Rattus norvegicus, UniProt Q63707), sequence (Q63707 whole entry): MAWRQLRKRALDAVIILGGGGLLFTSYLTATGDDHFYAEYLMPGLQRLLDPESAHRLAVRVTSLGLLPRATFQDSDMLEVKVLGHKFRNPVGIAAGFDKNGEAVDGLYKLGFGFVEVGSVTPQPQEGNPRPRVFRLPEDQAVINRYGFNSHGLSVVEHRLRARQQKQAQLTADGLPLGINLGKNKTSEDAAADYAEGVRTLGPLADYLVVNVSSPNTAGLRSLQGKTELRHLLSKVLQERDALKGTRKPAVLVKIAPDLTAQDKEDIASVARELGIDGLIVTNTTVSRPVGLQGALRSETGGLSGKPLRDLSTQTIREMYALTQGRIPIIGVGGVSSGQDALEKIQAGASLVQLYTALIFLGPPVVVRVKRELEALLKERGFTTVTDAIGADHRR
Voltage-gated inwardly rectifying potassium channel KCNH2, sequence (Q12809 whole entry): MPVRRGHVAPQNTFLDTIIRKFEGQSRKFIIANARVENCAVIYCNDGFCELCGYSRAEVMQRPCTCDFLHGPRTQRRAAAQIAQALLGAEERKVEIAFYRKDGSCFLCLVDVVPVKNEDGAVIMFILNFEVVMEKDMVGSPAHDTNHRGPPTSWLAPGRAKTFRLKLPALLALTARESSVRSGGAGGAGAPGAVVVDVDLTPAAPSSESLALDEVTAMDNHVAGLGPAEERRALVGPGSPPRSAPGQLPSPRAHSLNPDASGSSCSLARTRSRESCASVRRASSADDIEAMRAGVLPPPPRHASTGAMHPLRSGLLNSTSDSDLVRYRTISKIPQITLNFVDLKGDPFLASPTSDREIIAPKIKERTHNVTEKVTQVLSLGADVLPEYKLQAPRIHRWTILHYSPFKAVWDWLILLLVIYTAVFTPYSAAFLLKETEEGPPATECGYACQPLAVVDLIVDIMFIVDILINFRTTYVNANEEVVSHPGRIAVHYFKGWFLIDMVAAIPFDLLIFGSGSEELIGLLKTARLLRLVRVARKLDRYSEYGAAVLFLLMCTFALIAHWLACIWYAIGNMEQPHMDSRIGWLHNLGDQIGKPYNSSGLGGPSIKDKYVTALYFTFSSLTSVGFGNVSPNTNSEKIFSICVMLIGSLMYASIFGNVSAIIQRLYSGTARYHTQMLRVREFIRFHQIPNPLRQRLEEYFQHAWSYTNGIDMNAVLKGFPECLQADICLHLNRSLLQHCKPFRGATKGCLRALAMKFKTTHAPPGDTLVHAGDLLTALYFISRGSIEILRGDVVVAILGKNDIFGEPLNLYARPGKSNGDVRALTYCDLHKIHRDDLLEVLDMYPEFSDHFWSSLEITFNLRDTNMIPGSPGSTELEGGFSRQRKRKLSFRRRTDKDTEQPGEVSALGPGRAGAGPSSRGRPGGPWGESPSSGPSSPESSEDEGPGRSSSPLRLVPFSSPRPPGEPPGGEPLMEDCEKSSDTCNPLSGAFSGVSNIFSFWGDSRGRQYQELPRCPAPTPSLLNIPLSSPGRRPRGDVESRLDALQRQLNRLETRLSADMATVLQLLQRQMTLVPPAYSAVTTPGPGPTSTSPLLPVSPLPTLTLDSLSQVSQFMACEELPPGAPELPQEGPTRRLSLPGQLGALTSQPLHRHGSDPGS
Dihydroorotate dehydrogenase (quinone), mitochondrial (Mus musculus, UniProt O35435), sequence (O35435 whole entry): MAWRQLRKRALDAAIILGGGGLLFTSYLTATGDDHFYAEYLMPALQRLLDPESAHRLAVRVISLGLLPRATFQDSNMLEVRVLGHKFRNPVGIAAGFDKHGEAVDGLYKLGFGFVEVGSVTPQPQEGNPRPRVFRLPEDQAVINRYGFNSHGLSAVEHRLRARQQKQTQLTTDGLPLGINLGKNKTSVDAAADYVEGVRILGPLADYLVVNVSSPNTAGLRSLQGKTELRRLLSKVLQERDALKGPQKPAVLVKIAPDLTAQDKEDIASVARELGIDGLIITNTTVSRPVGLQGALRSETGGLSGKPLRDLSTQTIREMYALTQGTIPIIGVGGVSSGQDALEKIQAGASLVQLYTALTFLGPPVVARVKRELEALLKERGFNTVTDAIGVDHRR

Row | Compound | fraction unbound at 1 µM [1] | Cmax [2] | pIC50 [3] | pIC50 (THP-1) | pIC50 [4] | pIC50 (MOLM-13) | AUC(0-inf) [5] | Cmax [6] | logD [7] | fraction unbound at 1 µM [8] | CLint scaled [9] | CLint scaled [10] | pIC50 [11] | pIC50 [12] | CLH [13] | solubility [14] | pIC50 (Cytochrome P450 2C8) | CLH [15] | pIC50 [16] | fraction unbound at 1 µM [17] | other results
1 | CCn1c(CO)nn(-c2nc(O[C@@H](C)C(F)(F)F)c(C(=O)Nc3c(C)ccnc3Cl)cc2F)c1=O | 0.23 | 1.71 µg/mL | 8.96 | 8.30 | < 5.00 | 8.70 | 16.1 µg·h/mL | 4.05 µg/mL | 2.7 | 0.28 | 0.312 L/h/kg | 0.498 L/h/kg | 5.80 | 8.07 | 5.2 µL/min/1e6 cells | > 400 µM | < 5.00 | < 1.9 µL/min/1e6 cells | 6.85 | 0.38 | CLH [18]: 8 µL/min/mg; pKd [19]: 8.48; pIC50 (Cytochrome P450 1A2): < 5.00; CLH [20]: 4 µL/min/1e6 cells; AUC(0-inf) [21]: 9.21 µg·h/mL; pIC50 (Cytochrome P450 2D6): < 5.00; Tmax [22]: 1.7 h; fraction unbound at 1 µM [23]: 0.33; CLint scaled [24]: 0.342 L/h/kg; Vdss [25]: 2.3 L/kg; F ([26]; po, 10 mg/kg, 24 h): 167%
2 | CCn1c(CO)nn(-c2nc(O[C@@H](C)C(F)(F)F)c(C(=O)Nc3c(C)cnc(OC)c3Cl)cc2F)c1=O | 0.062 | 2.19 µg/mL | 9.52 | 8.85 | < 5.00 | 9.40 | 25 µg·h/mL | 3.81 µg/mL | 2.4 | 0.078 | 0.372 L/h/kg | 5.16 L/h/kg | 6.89 | 8.38 | 6.2 µL/min/1e6 cells | 5 µM (≈ 2.74 µg/mL) | < 5.00 | 2.3 µL/min/1e6 cells | 8.00 | 0.063 | CLH [18]: < 7.7 µL/min/mg; pKd [19]: 8.96; pIC50 (Cytochrome P450 1A2): < 5.00; CLH [20]: 5.3 µL/min/1e6 cells; AUC(0-inf) [21]: 23.8 µg·h/mL; pIC50 (Cytochrome P450 2D6): < 5.00; Tmax [22]: 4 h; fraction unbound at 1 µM [23]: 0.042; CLint scaled [24]: 0.33 L/h/kg; Vdss [25]: 2.2 L/kg; bioavailability ([26]; Sprague-Dawley): 106%
